Test results: US20250099431A1, “GLP-1R MODULATING COMPOUNDS” (priority 2020, published 2025)
pEC50: −log10 of the molar value.

Assays:
[1] = molecular target: GLP-1R (Homo sapiens (Human), UniProt P43220); test: GLP-1R activation: cAMP increase in CHO cells stably expressing GLP-1R; assay type: cell-based; conditions: cAMP increase, 10 point dose response, 30 minutes incubation at 37° C., read-out: EC50
Method: GLP-1R activation by a compound of the present disclosure was quantified by measuring cAMP increase in CHO cells stably expressing GLP-1R (MultiSpan product #C1267-1a). […] The cells were then incubated overnight at 37° C., 5% CO2. […] 1% BSA (Rockland Immunochemicals product #BSA-1000)). Following the medium change, the cells were incubated for 1 hour at 37° C., 5% CO2. The tested GLP-1 compound was added to the cells in a 10 point dose response followed by a 30 minutes incubation at 37° C., 5% CO2. cAMP concentration increase was then detected using Cisbio's cAMP Gs Dynamic Kit (product #62AM4PEC) according to the manufacturer's protocol. The response was plotted against the log of the agonist concentration and fitted to a sigmoidal equation to determine the EC50.

[2] = Microsomal stability (liver microsomal assay, mixed cofactors); predicted hepatic clearance; assay type: in vitro ADME; conditions: liver microsomes 1.0 mg protein/mL (+UDPGA +NADPH), 1 μM analyte, 37° C.; scaled with human liver weight and hepatic blood flow 1.3 L/hr/kg
Method: Metabolic stability of compounds was assessed using human or rat liver microsomal assays (Corning). In these assays, 10 nL of each analyte at a concentration of 1 mM in 100% DMSO was dispensed into a well of a polypropylene plates using the Echo 550 acoustic liquid dispenser (Labcyte®). Each plate contained 384 wells with a single analyte in each well.
A solution of human (Corning® Gentest™ Human Mixed Pooled Microsomes or rat (Corning® Gentest™ Rat [Sprague-Dawley] Pooled Liver Microsomes) liver microsomes at 2 mg/ml in 100 mM K2HPO4/KH2PO4 at pH 7. 4 was combined with alamethicin from Trichoderma viride (Sigma-Aldrich) 0.0225 mg/ml. The mixture was incubated on ice for 15 minutes. 5 μL of this mixture was added to individual wells following a 15 minute incubation at room temperature and supplemented with 5 μL NADPH Regenerating Solution of cofactors (Corning® Gentest™ UGT Reaction Mix) containing 100 mM K2HPO4/KH2PO4 at pH 7.4, 2.6 mM NADP+, 6.6 mM glucose-6-phosphate, 6.6 mM MgCl2, 0.8 U/mL glucose-6-phosphate dehydrogenase, 0.1 mM sodium citrate, and 6.8 mM uridine diphosphate-glucuronic acid. The final concentration of each analyte compound at the beginning of the reaction was 1 μM. The reactions were incubated at 37° C. and samples were collected at time points of 0, 5, 15, 30, 40, 50, 60, and 70 minutes for further analysis. Background data were collected using reactions without analyte compounds.
Upon collection of the sample time points, samples were quenched with 30 μL of a solution of 72% acetonitrile, 8% methanol, 0.1% formic acid, 19.9% water, and internal standard (IS). Reaction plates were spun in a centrifuge at speed of 4,000 rcf for 30 minutes at 4° C., following a dilution of the 10 μL quenched reaction into 40 μL de-ionized water, yielding assay plates.
Assay plates were analyzed using solid-state extraction coupled with quadrupole time-of-flight mass spectrometer, using Agilent QToF 6530 RapidFire 360 system, with C4 type A solid state cartridges. Analysis was performed in either positive or negative ionization modes. Mobile phases contained 0.1% formic acid in water for loading analytes onto solid state extraction cartridges and 0.1% formic acid in acetonitrile for elution into a mass spectrometer in positive ionization mode, or 0.1% acetic acid in water for loading and 0.1% acetic acid in acetonitrile for extraction in negative ionization mode. Peak-area ratios of integrated counts for individual compounds to IS were plotted as semi-logarithmic chart of log vs time. The initial linear portion of decay was fitted to a linear regression equation to derive the half-time of analyte decay.
Pharmacological parameters for an analyte compound metabolism were calculated using the following equations: […]
wherein concentration refers to the protein concentration (mg/ml) in the reaction.
This scales the in vitro intrinsic clearance up to the value that would be predicted for the entire mass of liver tissue (but with no restriction by blood flow). The value depends upon the size of the liver (species-dependent) and the yield of microsomal protein as appropriate (assumed to be species-independent).
Hepatic clearance will depend upon the inter-relationship of intrinsic clearance and hepatic blood flow and was predicted from in vitro data using a variety of approaches.
The hepatic extraction is reported as the predicted clearance expressed as a proportion of hepatic blood flow.

Chain of GLP-1R (P43220 24-463): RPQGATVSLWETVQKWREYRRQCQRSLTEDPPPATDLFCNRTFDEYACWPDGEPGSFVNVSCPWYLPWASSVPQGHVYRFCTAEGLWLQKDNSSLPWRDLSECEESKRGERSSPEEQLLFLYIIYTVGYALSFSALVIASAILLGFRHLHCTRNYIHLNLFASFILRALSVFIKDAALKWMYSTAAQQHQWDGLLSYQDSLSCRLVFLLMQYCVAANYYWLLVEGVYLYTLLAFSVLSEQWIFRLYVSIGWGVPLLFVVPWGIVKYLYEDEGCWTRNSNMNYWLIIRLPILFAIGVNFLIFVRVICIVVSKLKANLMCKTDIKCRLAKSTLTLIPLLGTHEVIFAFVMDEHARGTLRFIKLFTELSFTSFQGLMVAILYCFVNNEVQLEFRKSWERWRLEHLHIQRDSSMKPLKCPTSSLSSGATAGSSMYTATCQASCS

CC1(c2ccc(Cl)cc2F)Oc2cccc(-c3cc(F)c(Cc4nc5ccc(C(=O)O)cc5n4C[C@@H]4CCO4)cc3F)c2O1 (single isomer, unassigned) [Example 44]
pEC50 [1]: 10.48
Predicted Hepatic Clearance (Pred. Cl.) [2]: 4.83 mL/min/kg

COCCn1c(Cc2c(F)cc(-c3cccc4c3OC(C)(c3ccc(C#N)s3)O4)cc2F)nc2ccc(C(=O)O)cc21 (stereo not shown) [Example 11, 2-(4-(2-(5-cyanothiophen-2-yl)-2-methylbenzo[d][1, 3]dioxol-4-yl)-2,6-difluorobenzyl)-1-(2-methoxyethyl)-1H-benzo[d]imidazole-6-carboxylic acid]
pEC50 [1]: 7.47
Predicted Hepatic Clearance (Pred. Cl.) [2]: 7.17 mL/min/kg

COCCn1c(Cc2cc(F)c(-c3cccc4c3OC(c3ccc(C#N)cc3F)O4)cc2F)nc2ccc(C(=O)O)cc21 (single isomer, unassigned) [Example 40, 2-(4-(2-(4-cyano-2-fluorophenyl)benzo [d][1,3]dioxol-4-yl)-2,5-difluorobenzyl)-1-(2-methoxyethyl)-1H-benzo[d]imidazole-6-carboxylic acid]
pEC50 [1]: 5.91
Predicted Hepatic Clearance (Pred. Cl.) [2]: 5 mL/min/kg

COCCn1c(Cc2c(F)cc(-c3cccc4c3OC(C)(c3ccc(C#N)cc3F)O4)c(F)c2F)nc2ccc(C(=O)O)cc21 (single isomer, unassigned) [Example 96, 2-(4-(2-(4-cyano-2-fluorophenyl)-2-methylbenzo[d][1, 3]dioxol-4-yl)-2,3,6-trifluorobenzyl)-1-(2-methoxyethyl)-1H-benzo[d]imidazole-6-carboxylic acid]
pEC50 [1]: 7.24
Predicted Hepatic Clearance (Pred. Cl.) [2]: 3.5 mL/min/kg

COCCn1c(Cc2c(F)cc(-c3c(F)ccc4c3OC(C)(c3ccc(Cl)cn3)O4)cc2F)nc2ccc(C(=O)O)cc21 (stereo not shown) [Example 100, 2-(4-(2-(5-chloropyridin-2-yl)-5-fluoro-2-methylbenzo[d][1, 3]dioxol-4-yl)-2,6-difluorobenzyl)-1-(2-methoxyethyl)-1H-benzo[d]imidazole-6-carboxylic acid]
pEC50 [1]: 7.85
Predicted Hepatic Clearance (Pred. Cl.) [2]: 10.3 mL/min/kg

CC1(c2ccc(Cl)cc2F)Oc2cccc(-c3cc(F)c(Cc4nc5ccc(C(=O)O)cc5n4Cc4ncco4)c(F)c3)c2O1 (stereo not shown) [Example 69, 2-(4-(2-(4-chloro-2-fluorophenyl)-2-methylbenzo[d][1, 3]dioxol-4-yl)-2,6-difluorobenzyl)-1-(oxazol-2-ylmethyl)-1H-benzo[d]imidazole-6-carboxylic acid]
pEC50 [1]: 8.60
Predicted Hepatic Clearance (Pred. Cl.) [2]: 2.5 mL/min/kg

CC1(c2ccc(Cl)cn2)Oc2cccc(-c3cc(F)c(Cc4nc5ccc(C(=O)O)cc5n4C[C@@H]4CCO4)c(F)c3)c2O1 (single isomer, unassigned) [Example 49]
pEC50 [1]: 9.51
Predicted Hepatic Clearance (Pred. Cl.) [2]: 3.33 mL/min/kg

COCCn1c(Cc2c(F)cc(-c3cccc4c3OC3(c5ccc(Cl)cc5)CCC(=O)N43)cc2F)nc2ccc(C(=O)O)cc21 (stereo not shown) [Example 17, 2-(4-(3a-(4-chlorophenyl)-1-oxo-1,2,3,3a-tetrahydrobenzo[d]pyrrolo[2,1-b]oxazol-5-yl)-2,6-difluorobenzyl)-1-(2-methoxyethyl)-1H-benzo[d]imidazole-6-carboxylic acid]
pEC50 [1]: 5.00
Predicted Hepatic Clearance (Pred. Cl.) [2]: 7.33 mL/min/kg

CC1(c2ccc(C(F)(F)F)cc2)Oc2cccc(-c3cc(F)c(Cc4nc5ccc(C(=O)O)cc5n4C[C@@H]4CCO4)cc3F)c2O1 (stereo partly drawn) [Example 63, 2-(2,5-difluoro-4-(2-methyl-2-(4-(trifluoromethyl)phenyl)benzo[d][1, 3]dioxol-4-yl)benzyl)-1-(((S)-oxetan-2-yl)methyl)-1H-benzo[d]imidazole-6-carboxylic acid]
pEC50 [1]: 9.21
Predicted Hepatic Clearance (Pred. Cl.) [2]: 3.5 mL/min/kg

CC1(c2ccc(Cl)cn2)Oc2cccc(-c3cc(F)c(Cc4nc5ccc(C(=O)O)cc5n4CC4(CC#N)CC4)c(F)c3)c2O1 (stereo not shown) [Example 24, 2-(4-(2-(5-chloropyridin-2-yl)-2-methylbenzo[d][1, 3]dioxol-4-yl)-2,6-difluorobenzyl)-1-((1-(cyanomethyl)cyclo-propyl)methyl)-1H-benzo[d]imidazole 6-carboxylic acid]
pEC50 [1]: 8.77
Predicted Hepatic Clearance (Pred. Cl.) [2]: 2.67 mL/min/kg

CC1(c2ccc(Cl)cn2)Oc2cccc(-c3cc(F)c(Cc4nc5ccc(C(=O)O)cc5n4C[C@@H]4CCO4)c(F)c3)c2O1 (stereo partly drawn) [Example 27, 2-(4-(2-(5-chloropyridin-2-yl)-2-methylbenzo[d][1, 3]dioxol-4-yl)-2,6-difluorobenzyl)-1-(((S)-oxetan-2-yl)methyl)-1H-benzo[d]imidazole-6-carboxylic acid]
pEC50 [1]: 9.28
Predicted Hepatic Clearance (Pred. Cl.) [2]: 2.33 mL/min/kg

COCCn1c(Cc2ccc(-c3cccc4c3OC(C)(c3ccc(Cl)cc3F)O4)cc2F)nc2ccc(C(=O)O)cc21 (stereo not shown) [Example 80, 2-(4-(2-(4-chloro-2-fluorophenyl)-2-methylbenzo[d][1, 3]dioxol-4-yl)-2-fluorobenzyl)-1-(2-methoxyethyl)-1H-benzo[d]imidazole-6-carboxylic acid]
pEC50 [1]: 7.96
Predicted Hepatic Clearance (Pred. Cl.) [2]: 4 mL/min/kg

N#Cc1ccc(C2Oc3cccc(-c4cc(F)c(Cc5nc6ccc(C(=O)O)cc6n5C[C@@H]5CCO5)c(F)c4)c3O2)c(F)c1 (stereo partly drawn) [Example 30, (S)-2-(4-(2-(4-cyano-2-fluorophenyl)benzo [d][1,3]dioxol-4-yl)-2,6-difluorobenzyl)-1-(oxetan-2-ylmethyl)-1H-benzo[d]imidazole-6-carboxylic acid]
pEC50 [1]: 8.72
Predicted Hepatic Clearance (Pred. Cl.) [2]: 3.5 mL/min/kg

COCCn1c(Cc2c(F)cc(-c3cccc4c3OC(C)(c3ccc(C#N)cn3)O4)cc2F)nc2ccc(C(=O)O)cc21 (stereo not shown) [Example 66, 2-(4-(2-(5-cyanopyridin-2-yl)-2-methylbenzo[d][1, 3]dioxol-4-yl)-2,6-difluorobenzyl)-1-(2-methoxyethyl)-1H-benzo[d]imidazole-6-carboxylic acid]
pEC50 [1]: 7.68
Predicted Hepatic Clearance (Pred. Cl.) [2]: 7.17 mL/min/kg

CC1(c2ccc(Cl)cc2F)Oc2cccc(-c3cc(F)c(Cc4nc5ccc(C(=O)O)nc5n4CC4(CC#N)CC4)cc3F)c2O1 (stereo not shown) [Example 75, 2-(4-(2-(4-chloro-2-fluorophenyl)-2-methylbenzo[d][1, 3]dioxol-4-yl)-2,5-difluorobenzyl)-3-((1-(cyanomethyl)cyclopropyl)methyl)-3H-imidazo[4,5-b]pyridine-5-carboxylic acid]
pEC50 [1]: 9.15
Predicted Hepatic Clearance (Pred. Cl.) [2]: 4.83 mL/min/kg

COCCn1c(Cc2ccc(-c3cccc4c3OC(c3ccc(C#N)cc3F)O4)cc2F)nc2ccc(C(=O)O)cc21 (stereo not shown) [Example 4, 2-(4-(2-(4-cyano-2-fluorophenyl)benzo[d][1, 3]dioxol-4-yl)-2-fluorobenzyl)-1-(2-methoxyethyl)-1H-benzo[d]imidazole-6-carboxylic acid]
pEC50 [1]: 6.99
Predicted Hepatic Clearance (Pred. Cl.) [2]: 4.17 mL/min/kg

COCCn1c(Cc2ccc(-c3cccc4c3OC(c3ccc(Cl)cc3F)C4)cc2F)nc2ccc(C(=O)O)cc21 (stereo not shown) [Example 79, 2-(4-(2-(4-chloro-2-fluorophenyl)-2,3-dihydrobenzofuran-7-yl)-2-fluorobenzyl)-1-(2-methoxyethyl)-1H-benzo[d]imidazole-6-carboxylic acid]
pEC50 [1]: 6.13
Predicted Hepatic Clearance (Pred. Cl.) [2]: 2.33 mL/min/kg
